pIC50: −log10 of the molar value.
Tests used:
[1] = system: SOCE (store operated calcium entry) in CHO cells; test: Assay of SOCE (store operated calcium entry)-inhibiting action; assay type: cell-based, Chinese hamster; conditions: for inhibition at 10 µM: test compound 10 μmol; for inhibition at 10 µM / inhibition at 30 µM / inhibition at 100 µM: read-out: SOCE level (percentage of inhibition); for inhibition at 30 µM: test compound 30 μmol
Outline: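 CHO cells in calcium-free BSS received compound, then 1 μM thapsigargin 2 min later to deplete stores; after 9 min, 2 mM calcium chloride (final) added. Percent inhibition of the rise in intracellular calcium determined at various compound concentrations.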

[2] = system: IICR (IP3 induced calcium release) in CHO cells; test: Assay of IICR (IP3 induced calcium release)-inhibiting action; assay type: cell-based, Chinese hamster; conditions: for inhibition at 10 µM: test compound 10 μmol
Outline: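 Inhibition (%) of the intracellular calcium increase triggered by 10 μM ATP, measured in CHO cells in BSS with calcium. Compound given 1 min after the buffer exchange and 2 min before ATP; values reported per compound concentration.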

[3] = Cricetulus griseus, CHO, CHO cells, thapsigargin
[4] = Cricetulus griseus, CHO, test compound 100 μmol, CHO cells, thapsigargin
[5] = Cricetulus griseus, CHO, CHO cells, 10 μM ATP, read-out: IICR level (percentage of inhibition)
[6] = Cricetulus griseus, CHO, test compound 30 μmol, CHO cells, 10 μM ATP, read-out: IICR level (percentage of inhibition)
[7] = Cricetulus griseus, CHO, test compound 100 μmol, CHO cells, 10 μM ATP, read-out: IICR level (percentage of inhibition)
[8] = Cricetulus griseus, CHO, Table 1

| Compound | inhibition at 10 µM [1, 3] | inhibition at 30 µM [1, 3] | inhibition at 100 µM [1, 4] | inhibition at 10 µM [2, 5] | inhibition at 30 µM [2, 6] | inhibition at 100 µM [2, 7] | pIC50 [1, 8] | SOCE level (percentage of inhibition) ([1]; test compound 100 μmol, CHO cells, thapsigargin) | inhibition at 20 µM ([2]; Cricetulus griseus, CHO, test compound 20 μmol, CHO cells, 10 μM ATP, read-out: IICR level (percentage of inhibition)) | pIC50 [2, 8] | IICR level (percentage of inhibition) ([2]; test compound 30 μmol, CHO cells, 10 μM ATP) | IICR level (percentage of inhibition) ([2]; test compound 100 μmol, CHO cells, 10 μM ATP) |
| --- | --- | --- | --- | --- | --- | --- | --- | --- | --- | --- | --- | --- |
| CC(C)N(CCO)CCC(=O)c1cccnc1 [Example 158, 2-(N-isopropylhydroxyethyl)aminoethyl-3′-pyridylketone] | 0% | 0% | 0% | 30% | 20% | 20% | – | – | – | – | – | – |
| CC(CN(C)CCO)C(=O)c1ccc(F)cc1 (centres unmarked) [Example 163, 2-(N-hydroxyethylmethyl)amino-1-methylethyl-4-fluorophenylketone] | 0% | 0% | 20% | 0% | 0% | 0% | – | – | – | – | – | – |
| CCN(CCC(=O)c1ccccn1)Cc1ccccc1 [Example 242, 2-(N-benzylethyl)aminoethyl-2-pyridylketone] | 0% | 0% | 0% | 30% | 80% | 90% | – | – | – | – | – | – |
| O=C(CCNCCC1=NCN=C1)c1ccc(Oc2ccccc2)cc1 [Example 113] | 0% | 10% | 40% | 70% | 90% | 100% | – | – | – | – | – | – |
| Cc1nc(C)c(C(=O)CCN(CCO)C(C)C)s1 [Example 257, 2-(N-isopropyl-2-hydroxyethyl)aminoethyl-2,4-dimethyl-5-thiazolylketone] | 0% | 0% | 0% | 0% | 0% | 20% | – | – | – | – | – | – |
| Cc1cc(C(=O)CCN(Cc2ccccc2)C(C)C)oc1C [Example 225, 2-(N-isopropylbenzyl)aminoethyl-4,5-dimethyl-2-furylketone] | 10% | 30% | 70% | 20% | 30% | 90% | – | – | – | – | – | – |
| CCCCN(CCC(=O)c1ccc(Br)s1)Cc1ccccc1 [Example 373, 2-(N-butyl-N-benzyl)aminoethyl-5-bromo-2-thienylketone] | 100% | 28% | 65% | 0% | 36% | 0% | – | – | – | – | – | – |
| CN(CCC(=O)c1cnccn1)Cc1ccccc1 [Example 215, 2-(N-benzylmethyl)aminoethyl-2-pyrazylketone] | 0% | 0% | 0% | 0% | 0% | 50% | – | – | – | – | – | – |
| CC(C)N(CCO)CCC(=O)c1ccco1 [Example 153, 2-(N-hydroxyethylisopropyl)aminoethyl-2-furylketone] | 0% | 0% | – | – | – | – | < 4.00 | 10% | 50% | 4.70 | 60% | 80% |
| NCCCCN(CCCN)CCC(=O)c1ccc(Br)s1 [Example 344, 2-(N-4-aminobutyl-N-3-aminopropyl)aminoethyl-5-bromo-2-thienylketone] | 0% | 2% | 6% | 10% | 40% | 30% | – | – | – | – | – | – |
| CN(CCC(=O)c1ccc2ccccc2c1)Cc1ccccc1 [Example 71, 2-(N-methylbenzyl)aminoethyl naphthylketone] | 0% | 0% | – | 0% | – | – | – | – | – | – | – | – |
| CCC(C)N(CCC(=O)c1ccc(Br)s1)C(C)CC (centres unmarked) [Example 339, 2-(N,N-di-sec-butyl)aminoethyl-5-bromo-2-thienylketone] | 0% | 8% | 61% | 50% | 80% | 60% | – | – | – | – | – | – |
| O=C(CCN(CCO)c1ccccc1)c1ccc(-c2ccccc2)cc1 [Example 299, 2-(N-2-hydroxyethylphenyl)aminoethyl-4-biphenylketone] | 20% | 40% | 40% | 70% | 30% | 30% | – | – | – | – | – | – |
| CN(CCO)CCC(=O)c1nccs1 [Example 291, 2-(N-2-hydroxyethylmethyl)aminoethyl-2-thiazolylketone] | 0% | 0% | 0% | 40% | 70% | 100% | – | – | – | – | – | – |
| O=C(CCN1CCC(CCO)CC1)c1ccc(Br)s1 [Example 361, 2-(4-hydroxyethylpiperadino)ethyl-5-bromo-2-thienylketone] | 22% | 2% | 19% | 22% | 0% | 19% | – | – | – | – | – | – |
| CC(C)N(CC(=O)c1ccc(F)cc1)Cc1ccccc1 [Example 196, 1-(N-benzylisopropyl)aminomethyl-4-fluorophenylketone] | 0% | 20% | 40% | 0% | 10% | 30% | – | – | – | – | – | – |
| O=C(CCN(CCO)c1ccccc1)c1ccncc1 [Example 134, 2-(N-phenylhydroxyethyl)aminoethyl-4-pyridylketone] | 0% | 0% | 0% | 20% | 20% | 30% | – | – | – | – | – | – |
| C=CCC(=O)c1ccc2ccccc2c1 [Example 92, Allyl-2-naphthylketone] | 0% | 0% | 0% | 0% | 0% | 30% | – | – | – | – | – | – |
| O=C(CCNCCSSCCNCCC(=O)c1ccc(I)s1)c1ccc(I)s1 [Example 410] | 20% | 40% | 50% | 59% | 65% | 88% | – | – | – | – | – | – |
| CC(CN(CCO)C(C)C)C(=O)c1ccccc1F (centres unmarked) [Example 181, 1-methyl-2-(N-hydroxyethylisopropyl)aminoethyl-2-fluorophenylketone] | 20% | 40% | 80% | 0% | 10% | 20% | – | – | – | – | – | – |
| O=C(CCN(CCO)CCO)c1nccs1 [Example 143, 2-(N,N-dihydroxyethyl)aminoethyl-2-thiazolylketone] | 0% | 0% | 10% | 0% | 50% | 90% | – | – | – | – | – | – |
| CC(C)(C)N(CCC(=O)c1ccc(Br)cc1)Cc1ccccc1 [Example 324, 2-(N-benzyl-t-butyl)aminoethyl-4-bromophenylketone] | 20% | 20% | 20% | 50% | 40% | 40% | – | – | – | – | – | – |

From patent US8937091B2 (Japan Science and Technology Agency, priority 2009, dated 2015)
